Here are results for 1 compound from US6808892B1, “Method for identifying inhibitors of IPC synthase” (AstraZeneca AB, priority 1998, dated 2004).

The experiment concerns strain lcb1::kanMX, pNS149. The experiment can be described thus: IPC synthase screen: growth inhibition of the engineered yeast strain with or without added phytosphingosine. The class given is cell-based, S. cerevisiae. An excerpt:
Therefore in a first aspect of the present invention we provide a screening assay for identifying a selective IPC synthase inhibitor which assay comprises contacting a test compound with engineered cells whose capability to synthesize sphingolipids depends on the addition of exogenous phytosphingosine and which are capable of sustained growth via compensatory phospholipids, adding phytosphingosine, and determining IPC synthase inhibition by the test compound by reference to any cell growth inhibition.
The utility of the lcb1::kanMX pNS149 strain to identify inhibitors of IPC synthase was evaluated using aureobasidinA as a test compound. The lcb1::kanMX pNS149 strain is a further independent aspect of the invention.
Inhibition of growth by aureobasidinA in strain lcb1::kanMX, pNS149 with added phytosphingosine.
Inhibition of growth by aureobasidinA in strain lcb1::kanMX, pNS149 without added phytosphingosine.

*1 amine or outer side, *2 acyl side, *3 side chain or, on linkers, in order; H or OH if unused. Where a SMILES comes first, the peptide text is derived from it. [ ]: non-standard residue; d: D form. X1 = CC[C@@H](C)[C@@H](O[*:1])C(=O)[*:2]; NMeVal(β-OH) = CN[C@H](C(=O)O)C(C)(C)O; NMeF = CN[C@@H](Cc1ccccc1)C(=O)O; aIle = CC[C@@H](C)[C@H](N)C(=O)O; NMeV = CN[C@H](C(=O)O)C(C)C

As to `CC[C@@H](C)[C@@H]1NC(=O)[C@@H]2CCCN2C(=O)[C@H](Cc2ccccc2)N(C)C(=O)[C@H](Cc2ccccc2)NC(=O)[C@H](C(C)C)N(C)C(=O)[C@@H]([C@H](C)CC)OC(=O)[C@H](C(C)(C)O)N(C)C(=O)[C@H](CC(C)C)NC(=O)[C@H](C(C)C)N(C)C1=O` [aureobasidinA] (cyclo(F[NMeF]P[aIle][NMeV]L[NMeVal(β-OH)][X1][NMeV])), the Inhibition of growth entry (pNS149, with added phytosphingosine (FIG. 1a)) is reported as “very pronounced” and the Inhibition of growth result (pNS149, without added phytosphingosine (FIG. 1b)) is “absent”.
